This is an account of results in US8344008B2 (Janssen Pharmaceutica NV, priority 2007, dated 2013).

By Ki is commonly meant a dissociation constant, usually derived from enzyme kinetics or from competition with a known ligand.

The target of the assay is T1, recombinant human LTA4 hydrolase (rhLTA4H) (Homo sapiens, UniProt P09960).
T1 construct: made in house; host or cells: Spodoptera frugiperda (Sf-9) cells, baculovirus (pFastBac1)
T1 sequence (P09960 1-611): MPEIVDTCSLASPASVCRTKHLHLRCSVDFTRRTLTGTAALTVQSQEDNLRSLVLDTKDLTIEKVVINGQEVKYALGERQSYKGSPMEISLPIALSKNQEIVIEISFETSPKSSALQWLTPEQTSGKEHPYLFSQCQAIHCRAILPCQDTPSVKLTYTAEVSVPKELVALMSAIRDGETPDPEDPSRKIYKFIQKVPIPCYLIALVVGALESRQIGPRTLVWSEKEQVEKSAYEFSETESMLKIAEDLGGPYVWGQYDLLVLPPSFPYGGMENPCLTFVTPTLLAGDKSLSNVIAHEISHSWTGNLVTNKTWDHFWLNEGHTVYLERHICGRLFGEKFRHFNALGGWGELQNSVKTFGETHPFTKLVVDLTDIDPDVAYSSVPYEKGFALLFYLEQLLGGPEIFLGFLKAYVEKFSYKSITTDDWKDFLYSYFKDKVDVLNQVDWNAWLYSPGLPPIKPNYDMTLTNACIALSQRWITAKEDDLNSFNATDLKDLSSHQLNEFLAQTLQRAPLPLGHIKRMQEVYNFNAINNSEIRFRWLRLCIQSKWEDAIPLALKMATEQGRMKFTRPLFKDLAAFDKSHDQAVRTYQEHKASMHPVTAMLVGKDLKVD
The assay can be described thus: Recombinant Human LTA4 Hydrolase Assay for LTA4 Hydrolase Inhibitor Activity. Format: biochemical. Particulars: average of results obtained; LTB4 quantified by enzyme-linked immunoassay. In a few lines: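 LTB4 formation, quantified by EIA after 10 min at rt, was the read-out once 9 ng LTA4 (free acid) was added to recombinant human enzyme (36 ng, Sf-9 expressed) that had sat 10 min with compound. Buffer: 0.1 M potassium phosphate pH 7.4 with fatty-acid-free BSA; IC50 by 4-parameter fit.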

SMILES strings stand for the structures. Where a name gives a salt, the structure may show the parent alone.

For `NC(=O)N[C@H]1C[C@H]2CC[C@@H](C1)N2CCOc1ccc(Oc2nc3cccc(Cl)c3s2)cc1` [Example 278, meso-endo-(8-{2-[4-(7-Chloro-benzothiazol-2-yloxy)-phenoxy]-ethyl}-8-aza-bicyclo[3.2.1]oct-3-yl)-urea], the Ki amounted to 1740 nM. In the case of `CS(=O)(=O)N1C[C@@H]2C[C@H]1CN2Cc1ccc(Oc2nc3ccc(F)cc3s2)cc1` [Example 230, (S,S)-6-Fluoro-2-[4-(5-methanesulfonyl-2,5-diaza-bicyclo[2.2.1]hept-2-ylmethyl)-phenoxy]-benzothiazole] it was 397 nM. In the case of `O=S(=O)(c1cccs1)N1CC2CN(Cc3ccc(Oc4nc5ccccc5s4)cc3)CC2C1` (stereo not drawn) [Example 124, 2-{4-[5-(Thiophene-2-sulfonyl)-hexahydro-pyrrolo[3,4-c]pyrrol-2-ylmethyl]-phenoxy}-benzothiazole], the Ki came out at 2290 nM. For `CS(=O)(=O)N[C@@H]1C[C@H]2CC[C@@H](C1)N2CCc1ccc(Oc2nc3c(Cl)cccc3s2)cc1` [Example 162, meso-exo-N-(8-{2-[4-(4-Chloro-benzothiazol-2-yloxy)-phenyl]-ethyl}-8-aza-bicyclo[3.2.1]oct-3-yl)-methanesulfonamide] the value was 188 nM; for `CC(=O)N1C[C@@H]2C[C@H]1CN2CCc1ccc(Oc2nc3ccccc3s2)cc1` [Example 7, (S,S)-1-(5-{2-[4-(Benzothiazol-2-yloxy)-phenyl]-ethyl}-2,5-diaza-bicyclo[2.2.1]hept-2-yl)-ethanone], 13 nM; for `NCC(=O)N1C2CCC1CN(Cc1ccc(Oc3nc4ccccc4s3)cc1)C2` [Example 55, meso-2-Amino-1-{3-[4-(benzothiazol-2-yloxy)-benzyl]-3,8-diaza-bicyclo[3.2.1]oct-8-yl}-ethanone], 116 nM.

Take `CS(=O)(=O)N1C[C@H]2C[C@@H]1CN2Cc1ccc(Oc2nc3ccccc3s2)cc1` [Example 46, (R,R)-2-[4-(5-Methanesulfonyl-2,5-diaza-bicyclo[2.2.1]hept-2-ylmethyl)-phenoxy]-benzothiazole]: the Ki was 32 nM.

Regarding `CS(=O)(=O)N1CC2CCC(C1)N2Cc1ccc(Oc2nc3cccc(Cl)c3s2)cc1` [Example 174, meso-7-Chloro-2-[4-(3-methanesulfonyl-3,8-diaza-bicyclo[3.2.1]oct-8-ylmethyl)-phenoxy]-benzothiazole], the inhibition constant (Ki) was 196 nM. In the case of `NC(=O)N1CC2CN(Cc3ccc(Oc4nc5ccccc5s4)cc3)CC2C1` (stereo not drawn) [Example 139, 5-[4-(Benzothiazol-2-yloxy)-benzyl]-hexahydro-pyrrolo[3,4-c]pyrrole-2-carboxylic acid amide], the Ki is 3 nM. For `CC(=O)N1C[C@H]2C[C@@H]1CN2CCOc1ccc(Oc2nc3ccc(C)cc3s2)cc1` [Example 180, (R,R)-1-(5-{2-[4-(6-Methyl-benzothiazol-2-yloxy)-phenoxy]-ethyl}-2,5-diaza-bicyclo[2.2.1]hept-2-yl)-ethanone] the value was 124 nM; for `NC(=O)N[C@H]1C[C@H]2CC[C@@H](C1)N2CCOc1ccc(Oc2nc3cc(F)ccc3s2)cc1` [Example 219, meso-endo-(8-{2-[4-(5-Fluoro-benzothiazol-2-yloxy)-phenoxy]-ethyl}-8-aza-bicyclo[3.2.1]oct-3-yl)-urea], 15 nM. For `O=C(N1CCOCC1)N1CC2CN(Cc3ccc(Oc4nc5ccccc5s4)cc3)CC2C1` (stereo not drawn) [Example 115, {5-[4-(Benzothiazol-2-yloxy)-benzyl]-hexahydro-pyrrolo[3,4-c]pyrrol-2-yl}-morpholin-4-yl-methanone], the inhibition constant (Ki) was determined as 10 nM. In the case of `CS(=O)(=O)N1C[C@@H]2C[C@H]1CN2CCOc1ccc(Oc2nc3ccccc3s2)cc1` [Example 49, (S,S)-2-{4-[2-(5-Methanesulfonyl-2,5-diaza-bicyclo[2.2.1]hept-2-yl)-ethoxy]-phenoxy}-benzothiazole] it was 20 nM; in that of `CC(=O)N1C[C@@H]2C[C@H]1CN2Cc1ccc(Oc2nc3ccccc3s2)cc1F` [Example 79, (S,S)-1-{5-[4-(Benzothiazol-2-yloxy)-2-fluoro-benzyl]-2,5-diaza-bicyclo[2.2.1]hept-2-yl}-ethanone], 59 nM. In the case of `CC(=O)N1C[C@H]2C[C@@H]1CN2CCc1ccc(Oc2nc3cc(Cl)ccc3s2)cc1` [Example 274, (R,R)-1-(5-{2-[4-(5-Chloro-benzothiazol-2-yloxy)-phenyl]-ethyl}-2,5-diaza-bicyclo[2.2.1]hept-2-yl)-ethanone] it was 121 nM; in that of `CC(=O)N1[C@@H]2CC[C@H]1C[C@H](NCc1ccc(Oc3nc4cccc(Cl)c4s3)cc1)C2` [Example 166, meso-exo-1-{3-[4-(7-Chloro-benzothiazol-2-yloxy)-benzylamino]-8-aza-bicyclo[3.2.1]oct-8-yl}-ethanone], 1900 nM; in that of `c1cc(CN2C[C@@H]3C[C@H]2CN3)cc(Oc2nc3ccccc3s2)c1` [Example 69, (S,S)-2-[3-(2,5-Diaza-bicyclo[2.2.1]hept-2-ylmethyl)-phenoxy]-benzothiazole hydrochloride], 450 nM. In the case of `CC(=O)N1C[C@@H]2C[C@H]1CN2Cc1ccc(Cc2nc3ccccc3s2)cc1` [Example 4, (S,S)-1-[5-(4-Benzothiazol-2-ylmethyl-benzyl)-2,5-diaza-bicyclo[2.2.1]hept-2-yl]-ethanone] it was 163 nM; in that of `Cc1ccc2sc(Oc3ccc(OCCN4C[C@@H]5C[C@H]4CN5S(C)(=O)=O)cc3)nc2c1` [Example 255, (S,S)-2-{4-[2-(5-Methanesulfonyl-2,5-diaza-bicyclo[2.2.1]hept-2-yl)-ethoxy]-phenoxy}-5-methyl-benzothiazole], 277 nM. Take `NC(=O)N[C@@H]1C[C@H]2CC[C@@H](C1)N2CCOc1ccc(Oc2nc3cccc(F)c3s2)cc1` [Example 282, meso-exo-(8-{2-[4-(7-Fluoro-benzothiazol-2-yloxy)-phenoxy]-ethyl}-8-aza-bicyclo[3.2.1]oct-3-yl)-urea]: the inhibition constant Ki is 8 nM. For `CC(=O)N(C)[C@H]1C[C@H]2CC[C@@H](C1)N2Cc1ccc(Oc2nc3ccccc3s2)cc1` [Example 70, meso-endo-N-{8-[4-(Benzothiazol-2-yloxy)-benzyl]-8-aza-bicyclo[3.2.1]oct-3-yl}-N-methyl-acetamide] the value was 4 nM.

For the compound `CS(=O)(=O)N1C[C@@H]2C[C@H]1CN2CCOc1ccc(Oc2nc3c(F)cccc3s2)cc1` [Example 191, (S,S)-4-Fluoro-2-{4-[2-(5-methanesulfonyl-2,5-diaza-bicyclo[2.2.1]hept-2-yl)-ethoxy]-phenoxy}-benzothiazole], the inhibition constant (Ki) came out at 32 nM. In the case of `CC(=O)N1C[C@H]2C[C@@H]1CN2CCOc1ccc(Oc2nc3cccc(F)c3s2)cc1` [Example 218, (R,R)-1-(5-{2-[4-(7-Fluoro-benzothiazol-2-yloxy)-phenoxy]-ethyl}-2,5-diaza-bicyclo[2.2.1]hept-2-yl)-ethanone] it was 20 nM; in that of `CC(=O)N[C@@H]1C[C@H]2CC[C@@H](C1)N2Cc1ccc(Oc2nc3cc(Cl)ccc3s2)cc1` [Example 276, meso-exo-N-{8-[4-(5-Chloro-benzothiazol-2-yloxy)-benzyl]-8-aza-bicyclo[3.2.1]oct-3-yl}-acetamide], 38 nM. For `CC(=O)N1CCC2CN(Cc3ccc(Oc4nc5ccccc5s4)cc3)CC21` (stereo not drawn) [Example 87, 1-{5-[4-(Benzothiazol-2-yloxy)-benzyl]-hexahydro-pyrrolo[3,4-b]pyrrol-1-yl}-ethanone] the value was 36 nM. Regarding `CN(Cc1ccc(Oc2nc3ccccc3s2)cc1)[C@H]1C[C@H]2CC[C@@H](C1)N2C(N)=O` [Example 75, meso-endo-3-{[4-(Benzothiazol-2-yloxy)-benzyl]-methyl-amino}-8-aza-bicyclo[3.2.1]octane-8-carboxylic acid amide], the Ki came to 95 nM. For `O=C(c1ccco1)N1CC2CN(Cc3ccc(Oc4nc5ccccc5s4)cc3)CC2C1` (stereo not drawn) [Example 106, {5-[4-(Benzothiazol-2-yloxy)-benzyl]-hexahydro-pyrrolo[3,4-c]pyrrol-2-yl}-furan-2-yl-methanone] the value was 3 nM; for `CC(C)(C)OC(=O)CN1C[C@@H]2C[C@H]1CN2Cc1ccc(Oc2nc3ccccc3s2)cc1` [Example 50, (S,S)-{5-[4-(Benzothiazol-2-yloxy)-benzyl]-2,5-diaza-bicyclo[2.2.1]hept-2-yl}-acetic acid tert-butyl ester], 9 nM; for `CC(=O)N[C@H]1C[C@H]2CC[C@@H](C1)N2CCOc1ccc(Oc2nc3c(F)cccc3s2)cc1` [Example 273, meso-endo-N-(8-{2-[4-(4-Fluoro-benzothiazol-2-yloxy)-phenoxy]-ethyl}-8-aza-bicyclo[3.2.1]oct-3-yl)-acetamide], 16 nM. For `CC(=O)N1C[C@@H]2C[C@H]1CN2Cc1ccc(Oc2nc3ccccc3s2)cc1` [Example 1, (S,S)-1-{5-[4-(Benzothiazol-2-yloxy)-benzyl]-2,5-diaza-bicyclo[2.2.1]hept-2-yl}-ethanone], the Ki is 6 nM.
